In ChEMBL document CHEMBL1201862, “PubChem BioAssay data set” (2004):
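Growth conditions: 96-well plates. Treatment: test compound, 48 hours, 5 concentrations. Analysis: linear interpolation between bracketing concentrations; unreached endpoints set to highest concentration. Abbreviation: GI50, concentration required for 50% inhibition of growth.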 The source made the active and inactive calls. Cut-off read from the data, not from the text of the source: active = GI50 up to about 1.1 µM and inactive = higher.

Assays:
Assay in all cases: NCI anticancer screen, dose series, 48 h
[1] = system: SF-539
[2] = system: SW-620
[3] = system: RPMI-8226
[4] = system: HOP-62
[5] = system: RXF 393
[6] = system: HCT-15
[7] = system: 786-0
[8] = system: NCI-H522
[9] = system: COLO 205
[10] = system: A498
[11] = system: SK-MEL-5
[12] = system: HCT-116
[13] = system: HT-29
[14] = system: OVCAR-4
[15] = system: SK-MEL-2
[16] = system: Malme-3M
[17] = system: OVCAR-5

For Cc1nc2ccccc2c(=O)n1/N=C(\N=N\c1cc(Cl)ccc1Cl)c1ccc(N(C)C)cc1, the GI50 [1] was 33 µM (inactive), the GI50 [2] was > 100 µM (inactive) and the GI50 [3] was 26.2 µM (inactive). The GI50 [4] was 26.9 µM (inactive), the GI50 [5] was 27.2 µM (inactive) and the GI50 [6] was > 100 µM. For the same compound, the GI50 [7] was 73.5 µM (inactive), the GI50 [8] was 25 µM (inactive) and the GI50 [9] was 78.3 µM (inactive). For the same compound, the GI50 [10] was 60.4 µM (inactive), the GI50 [11] was 27.2 µM (inactive) and the GI50 [12] was 32.3 µM (inactive). For the same compound, the GI50 [13] was 42 µM (inactive).
CCOC(=O)C1=C(Nc2ccc(Cl)c(Cl)c2)OC/C1=N\NS(=O)(=O)c1ccc(C)cc1 was tested, and the GI50 [1] was 37.5 µM (inactive), the GI50 [2] was > 100 µM (inactive) and the GI50 [3] was 21.6 µM (inactive). For the same compound, the GI50 [14] was 63.5 µM (inactive), the GI50 [15] was 29.6 µM (inactive) and the GI50 [4] was 36.7 µM (inactive). For the same compound, the GI50 [5] was 67.9 µM (inactive), the GI50 [7] was > 100 µM (inactive) and the GI50 [8] was 29 µM (inactive). For the same compound, the GI50 [9] was > 100 µM (inactive), the GI50 [16] was 67.8 µM (inactive) and the GI50 [17] was > 100 µM (inactive). The GI50 [10] was 44.4 µM (inactive), the GI50 [11] was 42.9 µM (inactive) and the GI50 [12] was 22.8 µM (inactive).
For CC(=O)N(/N=C\c1ccc([N+](=O)[O-])cc1)c1ccccc1, the GI50 [1] was > 100 µM (inactive), the GI50 [2] was > 100 µM (inactive) and the GI50 [3] was > 100 µM (inactive). The GI50 [14] was > 100 µM (inactive), the GI50 [15] was > 100 µM (inactive) and the GI50 [4] was > 100 µM (inactive). The GI50 [6] was > 100 µM, the GI50 [7] was > 100 µM (inactive) and the GI50 [9] was > 100 µM (inactive). The GI50 [16] was > 100 µM (inactive), the GI50 [17] was > 100 µM (inactive) and the GI50 [10] was > 100 µM (inactive). For the same compound, the GI50 [11] was > 100 µM (inactive), the GI50 [12] was > 100 µM (inactive) and the GI50 [13] was > 100 µM (inactive).
For CCOC(=O)Cc1nc(/C(C#N)=C/c2ccco2)[nH]c(=O)c1C#N, the GI50 [1] was > 100 µM (inactive), the GI50 [2] was > 100 µM (inactive) and the GI50 [3] was > 100 µM (inactive). For the same compound, the GI50 [14] was > 100 µM (inactive), the GI50 [15] was > 100 µM (inactive) and the GI50 [4] was > 100 µM (inactive). For the same compound, the GI50 [5] was > 100 µM (inactive), the GI50 [6] was > 100 µM and the GI50 [7] was > 100 µM (inactive). The GI50 [8] was 39.2 µM (inactive), the GI50 [9] was 33.5 µM (inactive) and the GI50 [17] was > 100 µM (inactive). For the same compound, the GI50 [11] was > 100 µM (inactive), the GI50 [12] was > 100 µM (inactive) and the GI50 [13] was > 100 µM (inactive).
In the case of Clc1ccc2c(Cl)ncnc2c1I, the GI50 [2] is reported as 80 µM (inactive), the GI50 [3] is reported as 33.7 µM (inactive) and the GI50 [14] is reported as > 100 µM (inactive). The GI50 [15] was > 100 µM (inactive), the GI50 [4] was > 100 µM (inactive) and the GI50 [5] was 42 µM (inactive). The GI50 [6] was > 100 µM, the GI50 [7] was > 100 µM (inactive) and the GI50 [8] was 20.6 µM (inactive). For the same compound, the GI50 [9] was > 100 µM (inactive), the GI50 [16] was > 100 µM (inactive) and the GI50 [17] was > 100 µM (inactive). The GI50 [11] was > 100 µM (inactive), the GI50 [12] was 76.4 µM (inactive) and the GI50 [13] was > 100 µM (inactive).
For O=C1c2cccc([N+](=O)[O-])c2C(=O)c2nccnc21, the GI50 [1] was 1.47 µM (inactive), the GI50 [2] was 1.73 µM (inactive) and the GI50 [3] was 3.05 µM (inactive). The GI50 [14] was 1.42 µM (inactive), the GI50 [15] was 1.45 µM (inactive) and the GI50 [5] was 1.95 µM (inactive). The GI50 [6] was 1.47 µM, the GI50 [7] was 1.78 µM (inactive) and the GI50 [8] was 1.36 µM (inactive). The GI50 [16] was 1.63 µM (inactive), the GI50 [17] was 3.81 µM (inactive) and the GI50 [10] was 5.32 µM (inactive). The GI50 [11] was 0.25 µM (active), the GI50 [12] was 1.63 µM (inactive) and the GI50 [13] was 2.25 µM (inactive).
For COc1ccccc1/C=C(\NC(=O)c1ccccc1)c1nc2ccccc2[nH]1, the GI50 [1] was 53.7 µM (inactive), the GI50 [2] was 47 µM (inactive) and the GI50 [3] was 17.6 µM (inactive). For the same compound, the GI50 [14] was 35 µM (inactive), the GI50 [15] was 27.4 µM (inactive) and the GI50 [5] was 76.6 µM (inactive). For the same compound, the GI50 [6] was > 100 µM, the GI50 [7] was 40.1 µM (inactive) and the GI50 [8] was 30.3 µM (inactive). For the same compound, the GI50 [9] was 28.8 µM (inactive), the GI50 [16] was 95.7 µM (inactive) and the GI50 [17] was > 100 µM (inactive). The GI50 [10] was 56 µM (inactive), the GI50 [11] was 23.3 µM (inactive) and the GI50 [12] was 34 µM (inactive). The GI50 [13] was 44.1 µM (inactive).
With CC(CCC[C@H](C)CO)[C@H]1[C@@H](O)C(O)C2[C@@H]3C[C@@H](O)C4(O)C[C@@H](O)CC[C@]4(C)C3CC[C@@]21C (stereo not given in full) the GI50 [1] was > 100 µM (inactive), the GI50 [2] was > 100 µM (inactive) and the GI50 [3] was > 100 µM (inactive). For the same compound, the GI50 [14] was > 100 µM (inactive), the GI50 [15] was > 100 µM (inactive) and the GI50 [4] was > 100 µM (inactive). The GI50 [5] was > 100 µM (inactive), the GI50 [6] was > 100 µM and the GI50 [7] was > 100 µM (inactive). The GI50 [8] was > 100 µM (inactive), the GI50 [9] was > 100 µM (inactive) and the GI50 [16] was > 100 µM (inactive). The GI50 [11] was > 100 µM (inactive), the GI50 [12] was > 100 µM (inactive) and the GI50 [13] was > 100 µM (inactive).
CCN(CC)CCOc1ccc(CCc2cc(OC)c(OC)c(OC)c2)cc1 was tested, and the GI50 [1] was 81.7 µM (inactive), the GI50 [2] was 18.4 µM (inactive) and the GI50 [3] was 16.8 µM (inactive). The GI50 [14] was 55.3 µM (inactive), the GI50 [4] was 22.6 µM (inactive) and the GI50 [5] was 34.9 µM (inactive). For the same compound, the GI50 [6] was 30.7 µM, the GI50 [7] was 37.1 µM (inactive) and the GI50 [8] was 20 µM (inactive). The GI50 [9] was 17.3 µM (inactive), the GI50 [16] was 43.9 µM (inactive) and the GI50 [17] was 22.3 µM (inactive). The GI50 [10] was 22 µM (inactive), the GI50 [11] was 15.6 µM (inactive) and the GI50 [12] was 32.5 µM (inactive). For the same compound, the GI50 [13] was 17.5 µM (inactive).
